Reference: ChEMBL document CHEMBL4184141, “Investigating the Antibacterial Activity of Biphenylthiazoles against Methicillin- and Vancomycin-Resistant Staphylococcus aureus (MRSA and VRSA)” (J Med Chem, 2017)
≈ marks a conversion by molar mass, not a printed value.

Tests used:
Staphylococcus aureus [1] = assay: Bactericidal activity against vancomycin-resistant Staphylococcus aureus VRS11a up to 18 hrs by broth microdilution assay; format: functional; conditions: read-out: MBC99.9
Staphylococcus aureus [2] = assay: Bactericidal activity against methicillin-resistant Staphylococcus aureus USA400 NRS123 up to 18 hrs by broth microdilution assay; format: functional; conditions: USA400 NRS123, 18 h, read-out: MBC99.9
Staphylococcus aureus [3] = assay: Antibacterial activity against vancomycin-resistant Staphylococcus aureus VRS12 up to 20 hrs by broth microdilution assay; format: functional; conditions: VRS12, 20 h
Staphylococcus aureus [4] = assay: Antibacterial activity against methicillin-resistant Staphylococcus aureus 2658 RCMB up to 20 hrs by broth microdilution assay; format: functional
Staphylococcus aureus [5] = assay: Antibacterial activity against methicillin-resistant Staphylococcus aureus USA400 NRS123 up to 20 hrs by broth microdilution assay; format: functional; conditions: USA400 NRS123, 20 h
Pseudomonas aeruginosa = assay: Antibacterial activity against Pseudomonas aeruginosa ATCC 15442 up to 20 hrs by broth microdilution assay; format: functional; conditions: ATCC 15442, 20 h
Staphylococcus aureus [6] = assay: Bactericidal activity against Staphylococcus aureus RN4220 up to 18 hrs by broth microdilution assay; format: functional; conditions: RN4220, 18 h, read-out: MBC99.9
Staphylococcus aureus [7] = assay: Antibacterial activity against vancomycin-resistant Staphylococcus aureus VRS10 up to 20 hrs by broth microdilution assay; format: functional; conditions: VRS10, 20 h
Staphylococcus aureus [8] = assay: Antibacterial activity against vancomycin-resistant Staphylococcus aureus VRS11a up to 20 hrs by broth microdilution assay; format: functional
Staphylococcus aureus [9] = assay: Antibacterial activity against methicillin-resistant Staphylococcus aureus NRS119 up to 20 hrs by broth microdilution assay; format: functional; conditions: NRS119, 20 h
Staphylococcus aureus [10] = assay: Bactericidal activity against methicillin-resistant Staphylococcus aureus NRS119 up to 18 hrs by broth microdilution assay; format: functional; conditions: NRS119, 18 h, read-out: MBC99.9
[11] = Selectivity index, ratio of cytotoxic concentration for human HRT18 cells to MIC for methicillin-resistant Staphylococcus aureus; format: toxicity; conditions: read-out: Selectivity Index
Staphylococcus aureus [12] = assay: Potentiation of vancomycin-induced antibacterial activity against vancomycin-resistant Staphylococcus aureus VRS10 assessed as fold reduction in vancomycin MIC at 0.5 times MIC after 20 to 22 hrs; format: functional
Staphylococcus aureus [13] = assay: Antibacterial activity against methicillin-resistant Staphylococcus aureus USA300 infected in Caenorhabditis elegans AU37 harboring (sek-1(km4);glp-4(bn2)I) mutant assessed as reduction in bacterial burden at 20 ug/ml after 18 hrs by microscopic analysis relative to control; format: functional; design: scale not given: the % may be the effect or the level left
Staphylococcus aureus [14] = assay: Bactericidal activity against vancomycin-resistant Staphylococcus aureus VRS10 up to 18 hrs by broth microdilution assay; format: functional; conditions: VRS10, 18 h, read-out: MBC99.9
Enterococcus faecium = assay: Antibacterial activity against vancomycin-resistant Enterococcus faecium ATCC 700221 up to 20 hrs by broth microdilution assay; format: functional; conditions: ATCC 700221, 20 h
HRT-18 cell line = assay: Cytotoxicity against human HRT18 cells up to 64 microg/ml after 6 hrs by MTS assay; format: cell-based; conditions: hrt-18, 6 h
Staphylococcus aureus [15] = assay: Potentiation of vancomycin-induced antibacterial activity against vancomycin-resistant Staphylococcus aureus VRS10 assessed as reduction in vancomycin MIC after 20 hrs by checkerboard assay; format: functional
Staphylococcus aureus [16] = assay: Potentiation of vancomycin-induced antibacterial activity against vancomycin-resistant Staphylococcus aureus VRS10 assessed as vancomycin MIC after 20 hrs by checkerboard assay; format: functional; conditions: VRS10, 20 h
Staphylococcus aureus [17] = assay: Antibacterial activity against Staphylococcus aureus RN4220 up to 20 hrs by broth microdilution assay; format: functional; conditions: RN4220, 20 h
Staphylococcus aureus [18] = assay: Synergistic antibacterial activity against vancomycin-resistant Staphylococcus aureus VRS10 after 20 hrs in presence of vancomycin by checkerboard assay; format: functional; conditions: VRS10, 20 h
Staphylococcus aureus [19] = assay: Bactericidal activity against vancomycin-resistant Staphylococcus aureus VRS12 up to 18 hrs by broth microdilution assay; format: functional; conditions: VRS12, 18 h, read-out: MBC99.9

Cc1nc(-c2ccc(-c3ccccc3)cc2)sc1-c1ccnc(NN2CCN(C)CC2)n1
MBC (Staphylococcus aureus [1]): 8 µg/mL (≈ 18.1 µM)
MBC (Staphylococcus aureus [2]): 4 µg/mL (≈ 9.04 µM)
MIC (Staphylococcus aureus [3]): 8 µg/mL (≈ 18.1 µM)
MIC (Staphylococcus aureus [4]): 0.78 µg/mL (≈ 1.76 µM)
MIC (Staphylococcus aureus [5]): 4 µg/mL (≈ 9.04 µM)
MIC (Pseudomonas aeruginosa): > 64 µg/mL
MBC (Staphylococcus aureus [6]): 8 µg/mL (≈ 18.1 µM)
MIC (Staphylococcus aureus [7]): 8 µg/mL (≈ 18.1 µM)
MIC (Staphylococcus aureus [8]): 8 µg/mL (≈ 18.1 µM)
MIC (Staphylococcus aureus [9]): 4 µg/mL (≈ 9.04 µM)
MBC (Staphylococcus aureus [10]): 4 µg/mL (≈ 9.04 µM)
selectivity ratio [11]: 16
fold change (FC) (Staphylococcus aureus [12]): 128
Activity (Staphylococcus aureus [13]): 46%
MBC (Staphylococcus aureus [14]): 8 µg/mL (≈ 18.1 µM)
MIC (Enterococcus faecium): > 64 µg/mL
Activity (HRT-18 cell line): Non-Toxic
fractional inhibitory concentration index (FICI) (Staphylococcus aureus [15]): 0.51 - 0.56
MIC (Staphylococcus aureus [16]): 4 to 8 µg/mL
MIC (Staphylococcus aureus [17]): 4 µg/mL (≈ 9.04 µM)
MIC (Staphylococcus aureus [18]): 4 µg/mL
MBC (Staphylococcus aureus [19]): 8 µg/mL (≈ 18.1 µM)
